# Test results reported in a melting point compilation (Tetko et al.; mined from patent text by program, amines drawn as free bases though some values may be those of a salt).
row,SMILES,melting point
1,N#CCc1cc(O)c(O)c(F)c1,100 to 101 °C
2,S=C(c1cc2n(c1)Cc1ccccc1-n1ccnc1-2)N1CCOCC1,210 to 211 °C
3,CSc1cc(CBr)cc(SC)c1,76 to 77 °C
4,O=C1Nc2ccc(Cl)cc2C1(O)c1ccccc1OCc1ccccc1 (stereo not drawn),197 °C
5,Cc1ccc(CNc2ncnc3c(N4CCOCC4)nc(N4CCC(N(C)C)CC4)nc23)cc1,142 to 144 °C
6,COc1ccc(Nc2nc(-c3ccc(-c4ccccc4)cc3)cs2)nc1,212 to 213 °C
7,COc1cc(OC)c2c(C)c(CCCl)c(=O)oc2c1,129 to 130 °C
8,CN(c1ccc(O)cc1)c1cc2ccc(Cl)cc2c(O)n1,266 °C
9,O=c1[nH]c2cc([N+](=O)[O-])c(S(=O)(=O)NCCO)cc2[nH]c1=O,281 to 289 °C
10,Cc1ccc(Nc2cc(-c3ccccc3)nc(-c3ccccc3)c2)cc1,125 °C
11,O[C@@H]1CCc2ccc(F)cc2C1,59 to 61 °C
12,O=S(=S)(OC1O[C@H](COCc2ccccc2)[C@@H](OCc2ccccc2)[C@H](OCc2ccccc2)[C@H]1OCc1ccccc1)c1ccccc1 (stereo partly drawn),106 to 108 °C
13,OCc1cc2cc(Cl)cc(Br)c2o1,123 to 126 °C
14,c1ccc(COCC2c3ccccc3-c3ccccc32)cc1,69.5 to 70 °C
15,COc1cc2c(cc1Br)-c1cc3c(n1CC2)C(=O)N(C(C)(C)C)CCCC3,127 to 129 °C
16,COc1ccc(C(O)CNC(C)C)s1 (stereo not drawn),81 °C
17,CC(C)c1ccc(C2c3cc(N)ccc3OC2(C)C)cc1 (stereo not drawn),109 to 110 °C
18,COc1cc2c(c3c1OC(C)(C)C3)C(c1cccc(-c3ccccc3)c1)=NC(C)(C)C2,141 to 142 °C
19,CC(=O)N[C@H]1CC[C@H](CCN2CCN(c3nc(C)cc4c3CCO4)CC2)CC1,218 °C
20,COC(=O)[C@H]1[C@@H]2CC[C@@H](C2)[C@@H]1C(=O)O,59 to 60 °C
21,O=c1oc2ccccc2c2c1CNCC2,125 to 128 °C
22,CC1(C)c2c(ccc3cc(C#N)c(Cn4cncn4)cc23)OC1O (stereo not drawn),219 to 222 °C
23,O=C1NC(=Cc2ccccc2F)C(=O)N1c1cc(F)ccc1F,180 to 183 °C

row,SMILES,melting point
1,Oc1c(Br)c(Br)c(Cl)c(Br)c1Br,210 to 212 °C
2,O=C1c2ccc(Cl)cc2C(O)N1CCBr (stereo not drawn),164 to 168 °C
3,CC1(C)COC(=O)N1c1nc(-c2cccc(Br)c2)cs1,142 to 144 °C
4,CN(C)c1cccc(C(=O)N2CCC3(CC2)CSC2=C(O3)c3ccccc3C(=O)C2=O)c1,170 to 172 °C
5,CC#CCCCCCCCCCCCC,36 to 37 °C
6,C=CC(=O)Oc1ccc(N2C(=O)C(=C(C)C)/C(=C(/C)c3cc(C)oc3C)C2=O)cc1,157 to 158 °C
7,C#Cc1ccc(S(N)(=O)=O)s1,114 to 116 °C
8,OC1(Cn2cncn2)CCCC1Cc1ccc(-c2ccccc2)cc1 (stereo not drawn),145 to 148 °C
9,COC(=O)C1(S(=O)(=O)N2CC=C(c3ccc(-c4ccccc4)c(C)c3)CC2)CCOCC1,117 to 119 °C
10,O=C1c2ccccc2C(=O)N1OCn1ccnc1,158 to 160 °C
11,CC(C)(C)c1cc(C=O)cc(Cl)c1O,123 °C
12,c1ccc(Cc2ccc(-c3ccccc3)[nH]2)cc1,82 to 84 °C
13,COc1ccc(-c2ccc(CCC#N)cc2)cc1,105 to 107 °C
14,COC1(c2cc(F)cc(OCc3nc(-c4ccc(F)cc4)c(-c4ccc(S(N)(=O)=O)cc4)o3)c2)CCOCC1,70 to 72 °C
15,CC(=O)C1C(C)CC2C3CCC4=CCC=CC4(C)C3CCC21C (stereo not drawn),175 °C
16,CC12CC=C3c4ccc(O)cc4CCC3(C=C(F)F)C1CCC2O (stereo not drawn),103 to 106 °C
17,ON=C1CCCCCCC1Cc1ccccc1 (stereo not drawn),117 to 119 °C
18,N#CC(c1ccccn1)C1CCCCC1O (stereo not drawn),110 to 112 °C
19,CC1(C)Nc2ccccc2-c2c([N+](=O)[O-])cnn21,193 to 195 °C
20,O=C1CN(c2cccc(CF)c2)NC(=O)N1,169 to 170 °C
21,COc1ccc2[nH]c3cc(-c4ccccc4-c4ccccc4)c4c(c3c2c1)C(=O)NC4=O,220 to 223 °C
22,Clc1ccc2c(c1)C(c1ccccc1)=NCc1n[nH]nc1-2,199 to 200 °C
23,COc1ccc(-c2cc3cc(F)c(F)cc3[nH]2)cc1NCc1cccc([N+](=O)[O-])c1,212 to 214 °C

# The next lines start with the values.
row,melting point,SMILES
1,> 325 °C,Nc1nc(N)c2ncn(CC/C=C/P(=O)(O)O)c2n1
2,156 to 157 °C,CCC(=NOC)c1cc(I)c(O)c(CN)c1
3,134 to 138 °C,COc1c(S(=O)(=O)N2CCC[C@H]2C(=O)O)ccc(Cl)c1COc1cccc2c(C)cc(C)nc12
4,169 to 170 °C,O=C(Cc1cccc(C(F)(F)F)c1)Nc1c(Br)cccc1Br
5,172 to 174 °C,O=C(CCc1ccc(Cl)cc1)Cn1ccnc1
6,94 °C,CCOC(=O)Cc1ccc(SCc2cc(C)ccc2C(=O)O)cc1
7,155 °C,CCCCc1cn(Cc2ccc(-c3ccccc3C(=O)O)cc2)c2cccc(SC)c2c1=O
8,179 to 180 °C,CC1Cc2ccccc2N1c1nc(=O)c2cccnc2s1 (stereo not drawn)
9,124 to 126 °C,CC(C)(C)NC(=O)c1ccccc1-c1ccc(CBr)cc1
10,250 to 252 °C,Cc1nc(-n2ccc(O)cc2=O)sc1C(=O)NCc1cccc(F)c1
11,130 °C,CCCCc1nc2c(N)nc(C)c(C)c2n1CCCCNS(C)(=O)=O
12,110 to 112 °C,C#CC(CC)(CC)NC(=O)C(CCN1CCN(c2ccccc2OC)CC1)c1ccccc1 (stereo not drawn)
13,126 to 127 °C,CCCCCCCCCc1c(C(=O)O)sc2cc(Br)ccc12
14,172 °C,CCOC(=S)Nc1ccccc1NC(=S)NC(=O)OC
15,145 to 155 °C,CCc1cccc(NC(=O)NC2CC(C3CCCCC3)c3ccccc3N(CC(=O)NC(C)(C)C)C2=O)c1 (stereo not drawn)
16,129 to 131 °C,Cc1c(OCC(F)(F)F)ccnc1CS(=O)c1nc2ccccc2n1NCC(C)C (stereo not drawn)
17,120 °C,CCCCCCCCOc1ccc(-c2cnc(-c3ccc(OCc4ccccc4)c(F)c3F)nc2)cn1
18,197 to 199 °C,CNc1nc(-c2cccc(NC(=O)c3ccccc3Cl)c2)c2cc(OC)c(OC)cc2n1
19,96 to 98 °C,Cc1ccc(S(=O)(=O)NC(=O)C(C)(NC(=O)NN(C)C)C(C)C)cc1 (stereo not drawn)

row,melting point,SMILES
1,129 to 131 °C,CC(C)(C)OC(=O)N(CCCn1ncc2cc(C(=O)O)ccc21)c1ccccn1
2,245 to 247 °C,O=[N+]([O-])c1oc2ccc(Cc3nnn[nH]3)cc2c1-c1ccccc1
3,84 to 85.5 °C,CCn1c(C)nc2cc(C(F)(F)F)c(OC)c([N+](=O)[O-])c21
4,202 to 205 °C,CC1(C(=O)NCCc2ccc(CCC(=O)O)cc2)C=CN=N1 (stereo not drawn)
5,240 to 242 °C,O=C(C1Nc2cc(F)ccc2-n2cnc(-c3nc(C4CC4)no3)c21)N1CCOCC1 (stereo not drawn)
6,159 to 163 °C,NC(=NO)c1cc2c(cn1)[nH]c1ccccc12
7,221 to 222 °C,Cc1c(F)c(F)c(F)c2c1c(=O)c(C(=O)O)cn2-c1ccc(F)cc1F
8,164 to 166 °C,CCCc1nc2c(N)nc(C)c(C)c2n1CCCCN(O)C(C)=O
9,147 to 149 °C,N[C@@H](CCC(=O)O)C(=O)N[C@@H](Cc1ccccc1)C(=O)O
10,252 to 255 °C,CCCn1nc2c(N)nc3ncccc3c2c1CC(C)(C)O
11,60 °C,COC(=O)[C@@H]1CSCN1S(=O)(=O)c1ccc(Cl)c(COc2cccc3c(-n4ccnc4)cc(C)nc23)c1Cl
12,192 to 195 °C,NNC(=O)CCCSc1nccc(NC(N)=NCC(F)(F)F)n1
13,137 to 138 °C,CCOC(=O)c1cn(Cc2ccccc2)nc1OCc1ccc(OCc2nc(-c3ccco3)oc2C)cc1OC
14,211 to 213 °C,Cc1cc2c(c(S(N)(=O)=O)n1)C(=O)OC2
15,89 °C,COc1ccc(SC(C)(CC=C(C)C)C(=O)NO)cc1 (stereo not drawn)
16,83 to 84 °C,CCOC(=O)c1nc(CC)[nH]c1C(=O)OCC
17,83 to 84 °C,CCOc1cccc(CC(=O)O)c1OCCCc1cn(-c2ccc(C(F)(F)F)cn2)nc1C(CC)CC
18,135 to 136 °C,CN(C)CCC(c1ccccc1)c1ncc[nH]1 (stereo not drawn)
19,157 to 158 °C,O=C(NO)NCCc1cc2ccccc2o1

row,melting point,SMILES
1,178 to 179 °C,"O=C1Nc2ccc(Cl)cc2C(C#Cc2ccccc2)(C(F)(F)F)O1 (single isomer, unassigned; (-))"
2,234 °C,Cn1nc(-c2cnc(N)nc2-c2ccco2)ccc1=O
3,119 to 120 °C,COc1ccc(-c2nn(CC3CCCC3)c(=O)cc2-c2ccncc2)cc1
4,185 to 189 °C,Cc1cccc(NCC(=O)Nc2ccc(S(N)(=O)=O)cc2Cl)c1
5,83 to 84 °C,CCOc1cccc(Oc2cccnc2C#N)c1
6,> 300 °C,O=C(O)c1cn(-c2ccc(F)cc2)c2c(F)c(N3Cc4ccc(Cl)cc4C3)c(F)cc2c1=O
7,137 to 140 °C,Cn1ncnc1COc1nc2c(cc1-c1cccc(F)c1)nnn2-c1c(F)cccc1F
8,116 to 118 °C,COc1ccc2cc(C(=O)CCCCC(=O)N(C)O)ccc2c1
9,52 to 54 °C,Cc1ncoc1C(O)c1ccco1 (stereo not drawn)
10,221 to 222 °C,COc1cc(COc2nn(-c3ccccc3)cc2C=CC(=O)NNC(C)=O)ccc1OCc1nc(-c2ccco2)oc1C
11,149 to 151 °C,COC(=O)c1ccc(C(=O)/C=C/c2cc(-c3cc4ccccc4s3)c(OC)cc2OC)cc1
12,188 to 189 °C,CC(c1ccnc(C#N)c1)C(O)(Cn1cncn1)c1ccc(F)cc1F (stereo not drawn)
13,200 °C,O=C(c1ccc(F)cc1)C1CCN(CCCn2c(=S)[nH]c3ccccc3c2=O)CC1
14,142 to 143 °C,CCc1cccc(CNC[C@@H](O)[C@H](Cc2cc(F)cc(F)c2)NC(=O)c2ccc3ccncc3c2)c1
15,159 to 160 °C,[N-]=[N+]=NC1=CN(CC(F)(F)F)c2ccccc2C(c2ccccc2)=N1
16,125 to 126 °C,CC(=O)COc1ccc2c(c1)C(=O)NC(C)(C)O2
17,66 °C,CCN(CC(F)(F)F)c1cccc([N+](=O)[O-])c1
18,128 to 133 °C,CC(C(=O)O)N(C(=O)OC(C)(C)C)c1ccc(N)cc1 (stereo not drawn)
19,268 to 270 °C,O=C(O)c1ccc2c(c1)S(=O)(=O)c1ccccc1C=C2
